Molecules are shown by their SMILES.

The subject of experiment [1] is A172 glioblastoma cells. Kind of experiment: Antibody-dependent cellular phagocytosis (ADCP) of A172 cells by U937 cells. In kind it is cell-based, human. Conditions: U937 effector cells, anti-DNP antibodies. How it is done:
ADCP experiments carried out via a dual channel flow cytometry assay and were performed by measuring the % phagocytosis of A172 human glioblastoma cells by IFN-gamma primed U937 macrophage effector cells each stained with FL-1 and FL-4 dyes respectively giving rise to double positive FL-1 and FL-4 fluorescence shifts accompanying phagocytosis. These assays were performed in the presence and absence of exogenously added anti-DNP antibodies and various concentrations of each ARM-U2 derivative. Control experiments were also performed to confirm that cellular phagocytosis is occurring and is dependent on ARM-U2 binding cell surface uPAR by • 1. Performing out competitions with exogenous uPAR, • 2. Performing out-competitions with 6-ABT-4 which should bind uPAR but not anti-DNP antibodies • 3. Performing ADCP at 4 degrees Celsius where phagocytosis cannot occur and • 4. Amnis microscopic analysis of double positives identified in the ADCP assay to undergo 6-ABT-1 dependent phagocytosis.
IFNγ-primed U937 cells were stained with DiD dye (final concentration 1.9 μM) for 30 min at 37° C. A172 target cells were prepared by staining adherent cells with DiO dye (Invitrogen; final concentration 1.9 μM), and then nonenzymatically detaching the cells with 0.5 mM EDTA and EGTA. Cells were counted with trypan blue staining to verify cell viability. To measure phagocytosis, 2.5×10^4 target cells were suspended in 25 ul phenol-free low-IgG RPMI media to which 25 ul of 100 nM anti-DNP antibody (rabbit polyclonal KLH IgG, Invitrogen-100× stock) containing media was added followed by the addition of 1 ul of ARM-U2 from 100×DMSO stocks or 6-ABT-4 from 100×DMSO stocks for compound out-competition experiments, followed by the addition of 50 ul of 10^5 U937 cells in the same RPMI Assay Media resulting in a final volume of 100 uL. This experimental setup yielded an effector-to-target ratio (E:T ratios) of 4:1. For out-competition studies with exogenous uPAR, 250 ul of A-172 target cells in assay media was added directly to lyophilized 100 ug uPAR (R@D systems) to yield an 8.4 uM stock uPAR concentration, this was then combined in the manner and order described above. Eppendorfs were centrifuged at 200 rcf for 2 min then incubated at 37° C. for 1 hour or at 4° C. for 1 hr in controls establishing real phagocytosis is indeed represented by double positives in flow cytometry. Phagocytosis was halted by placing tubes on ice. […] The live cell population selected was further gated into four quadrants using dual FL-1 and FL-4 fluorescence enabling for the differentiation of effector only cells (top left quadrant-high FL-4), target only cells (bottom right quadrant-high FL-1 fluorescence), and double positive overlapping target and effector cells (top right quadrant-high FL-1 and FL-4 fluorescence). […]

Experiment [2] deals with T1, uPAR (uPA binding site) (Homo sapiens, UniProt Q03405).
T1 construct: purchased R&D systems
T1 sequence (Q03405 23-305): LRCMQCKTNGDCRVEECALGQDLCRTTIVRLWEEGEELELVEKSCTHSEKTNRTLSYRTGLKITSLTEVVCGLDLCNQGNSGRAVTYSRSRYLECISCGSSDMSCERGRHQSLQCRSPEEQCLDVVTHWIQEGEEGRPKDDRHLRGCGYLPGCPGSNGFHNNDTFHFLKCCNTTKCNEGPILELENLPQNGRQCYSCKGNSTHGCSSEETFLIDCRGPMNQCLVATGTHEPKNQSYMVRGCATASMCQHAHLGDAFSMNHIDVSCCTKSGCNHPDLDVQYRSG
Kind of experiment: Competitive ELISA uPAR binding assay (immobilized urokinase). The protocol: The affinity of ARM-U2 derivatives differing in both the length of the DNP-linker substituted at position 2 of ring C and the display of negative charge density (FIG. 8, Table 1) for uPAR were assayed using a competitive ELISA binding assay. The assay involves the immobilization of urokinase, a natural high affinity ligand for uPAR followed by the addition of a fixed concentration of recombinant uPAR protein and increasing concentrations of ARM-U2 which competes with urokinase for binding to the uPA binding site of uPAR. Following several washing steps, the amount of uPAR bound is quantified by a biotinylated anti-uPAR antibody and avidin-HRP and can be fit to a competitive binding model allowing for the extraction of the uPAR/ARM-U2 Kd.
All ARM-U2 derivatives were assessed for their ability to bind selectively to recombinant uPAR in vitro using a competitive ELISA binding assay. DMSO stock solutions of each ARM-U2 derivative stored at −20° C. were titrated into wells pre-coated with human urokinase (isolated from human urine, ProSpec 1 mg/ml deI water 18.5 μM) in the presence of uPAR. Selective binding to uPAR by ARM-U2 at the uPA binding site competes with uPAR-uPA binding which is required for a positive UV 450 nm absorbance signal. Increasing concentrations of ARM-U2 displace increasing amounts of uPAR from uPA which is detected by anti-uPAR/biotin labeled antibodies followed by avidin-HRP. The sigmoidal binding isotherm of absorbance at 450 nm vs log ARM-U2 concentration can then by fit by non-linear regression analysis to obtain the IC50 for ARM-U2/uPAR binding (Equation S2) which can then be translated into a KI for ARM-U2/uPAR binding using a competitive binding model adapted from the Cheng-Prusoff equation relating KI to IC50 (Equation S3). The ELISA experiments were performed as followed: To Corning high binding 96 well flat bottom plates was added 100 μl/well of 100 nM urokinase in sterile PBS. The plates were sealed and left to incubate at 4° C. overnight. The plates were then washed 1× with 200 μl wash buffer (PBS+0.05% Tween-20) and 1× with 400 μl wash buffer. The plates were blotted on paper towel and blocked for 1 h shaking at room temp with 300 μl of a solution of thermo superblock in PBS per well. Molecule dilutions into solutions of a fixed concentration (10 nM) of uPAR were prepared in 0.025% triton-X/PBS on a separate low binding plate during the blocking hour. The plates were again washed followed by the addition of 100 μl of the ARM-U2/uPAR solution with 0.1% final DMSO concentration. The solutions were mixed by multichannel pipette, sealed, and incubated for 2 h with shaking at room temperature. The plates were then washed 1× with 200 μl wash buffer (PBS+0.05% Tween-20) and 2× with 400 μl wash buffer. The plates were blotted on a paper towel followed by the addition of 100 μl/well of a solution of biotinylated anti-uPAR antibody in 1% BSA/PBS. (R&D Systems, 3.3 μl taken from 50 μg/250 μl-1000× stock) and incubation with shaking for 1 h at room temp. The plates were washed 1× with 200 μl wash buffer and 2× with 400 μl wash buffer and blotted on a paper towel. 100 μl of avidin-HRP (stock −500× from e-bioscience) were added per well, incubated 20 min with shaking at room temp followed by washing 1× with 200 μl wash buffer and 3× with 400 μl wash buffer. The plates were blotted dry with paper towel and 100 μl of TMB substrate was added to each well. The emergence of blue color was monitored and the reaction quenched with the addition of 50 μl of 2M sulfuric acid to each well followed by measuring the absorbance at 450 nm using a fluorescence plate reader. […]

The subject of experiment [3] is B16 melanoma tumors expressing human uPAR. Put plainly: B16 mouse melanoma allograft model expressing human uPAR. In kind it is in vivo. From the text:
The inventors also examined the efficacy of ARM-U2 in a B16−uPAR mouse allograft model developed in our laboratory. Mice immunized to produce anti-DNP IgG antibodies containing tumors expressing human uPAR, received daily treatment via intraperitoneal (IP) injection and were monitored over the course of 42 days.

For `O=C(O)CNC(=O)c1cccc(Nc2cc(N3CCC[C@H](C(=O)NCCCOCCOCCOCCCNc4ccc([N+](=O)[O-])cc4[N+](=O)[O-])C3)c3noc4c3c2C(=O)c2ccccc2-4)c1` [3-ABT-1], in experiment [1], the “ADCP efficacy and potency compared to 1-ABT-1” value is given as “no increase in efficacy or potency in ADCP”. Also, in experiment [2], the “uPAR-binding affinity relative to parent ARM-U2 derivative 1-ABT-1” value is “modest increase in affinity”.

Take `Nc1c(N2CCCC(C(=O)NCCCOCCOCCOCCCNc3ccc([N+](=O)[O-])cc3[N+](=O)[O-])C2)cc(Nc2ccc(S(=O)(=O)O)cc2S(=O)(=O)O)c2c1C(=O)c1ccccc1C2=O` (centres unmarked) [compound 23]: the Ki (usually a dissociation constant, usually derived from enzyme kinetics or from competition with a known ligand) in experiment [2] (calculated from the ELISA IC50) was 10 nM. For the same compound, in experiment [2] (competition with immobilized uPA for uPAR), the concentration for half-maximal inhibition (IC50) – broadly, the midpoint of a concentration-inhibition curve – was 63 nM.

Regarding `O=C(O)CNc1cccc(Nc2cc(N3CCC[C@H](C(=O)NCCCOCCOCCOCCCNc4ccc([N+](=O)[O-])cc4[N+](=O)[O-])C3)c3noc4c3c2C(=O)c2ccccc2-4)c1` [4-ABT-1], in experiment [1], the “ADCP efficacy and potency compared to 1-ABT-1” value is given as “no increase in efficacy or potency in ADCP”. The “uPAR-binding affinity relative to parent ARM-U2 derivative 1-ABT-1” value in experiment [2] is reported as “modest increase in affinity”.

As for `O=C(O)c1cc(Nc2cc(N3CCC[C@H](C(=O)NCCCOCCOCCOCCCNc4ccc([N+](=O)[O-])cc4[N+](=O)[O-])C3)c3noc4c3c2C(=O)c2ccccc2-4)cc(C(=O)O)c1` [2-ABT-1], in experiment [1], the “ADCP efficacy and potency compared to 1-ABT-1” value is “no increase in efficacy or potency in ADCP”. For the same compound, the “uPAR-binding affinity relative to parent ARM-U2 derivative 1-ABT-1” value in experiment [2] was “no increase in uPAR-binding affinity”.

Regarding `O=C1c2ccccc2-c2onc3c(N4CCC[C@H](C(=O)NCCCOCCOCCOCCCNc5ccc([N+](=O)[O-])cc5[N+](=O)[O-])C4)cc(Nc4cccc(S(=O)(=O)O)c4)c1c23` [5-ABT-1], the “ADCP efficacy and potency compared to 1-ABT-1” value in experiment [1] was “no increase in % phagocytosis”. Further, the “uPAR-binding affinity relative to parent ARM-U2 derivative 1-ABT-1” value in experiment [2] was “no increase in uPAR-binding affinity”.

For the compound `COc1cccc2c1C(=O)c1c(O)c3c(c(O)c1C2=O)C[C@@](O)(C(=O)CO)C[C@@H]3O[C@H]1C[C@H](N)[C@H](O)[C@H](C)O1` [doxorubicin], the “average tumor volume after 17 days” value in experiment [3] (IP injections over 17 days) is given as “approximately 200 mm^3”. For the same compound, in experiment [3] (daily IP treatment), the mean survival was found to be 27 days. Further, the “tumor growth inhibition (TGI)” value in experiment [3] (daily IP, ARM-U2 20 mpk or 100 mpk, Dox 1 mpk, vs PBS) is given as “comparable”. In addition, in experiment [3] (mouse, in vivo), the “persistence of tumor regression after treatment cessation” value is on record as around 14 days.
